Assay results as given in patent publication US20110245316A1, “PREVENTION OR DELAY OF ONSET OF ORAL MUCOSITIS” (SCICLONE PHARMACEUTICALS, INC., priority 2010, published 2011).

System: oral mucositis in patients receiving chemoradiation for head and neck cancer
Experiment: Phase 2 randomized, double-blind, placebo-controlled trial: onset of oral mucositis (WHO OM Scale) in patients receiving CT/RT
Assay type: in vivo, human
From the text: OM is a painful, debilitating, and costly toxicity of different chemoradiotherapy (CT/RT) regimens used to treat head and neck cancer. This trial is a phase 2, randomized, double-blind, dose-ranging, placebo-controlled three-arm study in patients receiving CT/RT for the treatment of head and neck cancer, to assess the safety and tolerability of γ-D-glutamyl-L-tryptophan (SCV-07) as well as its efficacy in delaying the onset of severe OM as assessed by the WHO Oral Mucositis Scale.
The WHO OM Scale is the standard, validated instrument used in clinical trials to measure OM: Grade 0=none; Grade 1=erythema and soreness, no ulcers; Grade 2=ulcers, able to eat a solid diet; Grade 3=ulcers; requires a liquid diet; Grade 4=ulcers, not able to tolerate a solid or liquid diet, requires IV or tube feeding.
59 eligible patients with recently diagnosed, treatment naïve, pathologically-confirmed, non-metastatic squamous cell carcinoma of the oral cavity, oropharynx, hypopharynx or larynx were enrolled and treated with a concomitant regimen of CT/RT consisting of a continuous course of external beam irradiation (IMRT eligible) with a minimum cumulative dose of 50 Gray (Gy) and cisplatin monotherapy administered using standard weekly or tri-weekly dosing regimens (80-100 mg/m^2 administered on Days 0, 21 and 42) or weekly (30-40 mg/m^2). At least two ‘at risk’ intraoral sites were included in the radiation fields and received a cumulative RT dose of at least 50 Gy. Subjects were equally randomized to receive either placebo or one of two doses of γ-D-glutamyl-L-tryptophan (0.02 or 0.1 mg/kg) on each radiation day for up to 7 weeks.
Tables 2-7 summarize the statistics for the Full Analysis Set “FAS” (57 subjects), and the completer population (52 subjects), with respect to delay of onset of severe oral mucositis. Also see FIGS. 1 and 2.
SCV-07 efficacy, dosing and scheduling parameters were assessed in hamster models of acute, fractionated and concomitant chemoradiation (CRT). […] A multicenter, prospective, blinded, randomized trial evaluated SCV-07's ability to alter OM in CRT-treated HNC patients (n=57). Cytokine and gene microarray analyses were performed for samples obtained before and on the last radiation day.

[1] = 0.02 mg/kg vs placebo, Completer Population
[2] = 0.02 mg/kg, Completer Population
[3] = 0.02 mg/kg, Completer Population, at 30-<35 Gy
[4] = 0.02 mg/kg, Completer Population, at 35-<40 Gy
[5] = 0.02 mg/kg, Completer Population, at 40-<45 Gy
[6] = 0.02 mg/kg, Completer Population, at 45-<50 Gy
[7] = 0.02 mg/kg, Completer Population, at 50-<55 Gy
[8] = 0.02 mg/kg, Completer Population, at 55-<60 Gy
[9] = 0.02 mg/kg, Completer Population, at 65-<70 Gy
[10] = 0.02 mg/kg, Completer Population, at ≧70 Gy
[11] = 0.10 mg/kg vs placebo, Completer Population
[12] = 0.10 mg/kg, Completer Population

SMILES: N[C@H](CCC(=O)N[C@@H](Cc1c[nH]c2ccccc12)C(=O)O)C(=O)O [SCV-07, γ-D-glutamyl-L-tryptophan]
- Cox Regression Analysis of Time to Initial Occurrence of Sever OM, Hazard Ratio (95% CI) [1]: 1.884 (0.840, 4.225)
- Cox Regression Analysis of Time to Initial Occurrence of Ulcerative OM, Hazard Ratio (95% CI) [1]: 0.737 (0.377, 1.444)
- Cox Regression Analysis of Time to Initial Occurrence of Severe OM, Hazard Ratio (95% CI) (0.02 mg/kg vs placebo, FAS population): 1.989 (0.908, 4.357)
- Cumulative Dose of RT (Gy) at Initial Onset of Severe OM, Max [2]: 70 Gy
- Cumulative Dose of RT (Gy) at Initial Onset of Severe OM, Mean (SD) [2]: 43 (18.7) Gy
- Cumulative Dose of RT (Gy) at Initial Onset of Severe OM, Median [2]: 34 Gy
- Cumulative Dose of RT (Gy) at Initial Onset of Severe OM, Min [2]: 18 Gy
- Cumulative Dose of RT (Gy) at Initial Onset of Ulcerative OM, Max [2]: 62 Gy
- Cumulative Dose of RT (Gy) at Initial Onset of Ulcerative OM, Mean (SD) [2]: 24 (12.9) Gy
- Cumulative Dose of RT (Gy) at Initial Onset of Ulcerative OM, Median [2]: 22 Gy
- Cumulative Dose of RT (Gy) at Initial Onset of Ulcerative OM, Min [2]: 6 Gy
- Cumulative Dose of Radiation (Gy) Prior to Initial Occurrence of Severe OM (Delay to Onset of Severe OM), K-M Estimate, Mean (SE) [2]: 42 (4.2) Gy
- Cumulative Dose of Radiation (Gy) Prior to Initial Occurrence of Severe OM, K-M Estimate, 25%-75% [2]: 28-62 Gy
- Cumulative Dose of Radiation (Gy) Prior to Initial Occurrence of Severe OM, K-M Estimate, Median (95% CI) [2]: 34 (28, 62) Gy
- Cumulative Dose of Radiation (Gy) Prior to Initial Occurrence of Ulcerative OM (Delay to Onset of Ulcerative OM), K-M Estimate, Mean (SE) [2]: 24 (3.1) Gy
- Cumulative Dose of Radiation (Gy) Prior to Initial Occurrence of Ulcerative OM, K-M Estimate, 25%-75% [2]: 18-30 Gy
- Cumulative Dose of Radiation (Gy) Prior to Initial Occurrence of Ulcerative OM, K-M Estimate, Median (95% CI) [2]: 22 (18, 30) Gy
- Time (Days) to Initial Occurrence of Sever OM, K-M Estimate, 25%-7% [2]: 18 to 42 days
- Time (Days) to Initial Occurrence of Sever OM, K-M Estimate, Mean (SE) [2]: 28 (3.0) Days
- Time (Days) to Initial Occurrence of Sever OM, K-M Estimate, Median (95% CI) [2]: 25 (18, 42) Days
- Time (Days) to Initial Occurrence of Ulcerative OM, K-M Estimate, 25%-7% [2]: 10 to 20 days
- Time (Days) to Initial Occurrence of Ulcerative OM, K-M Estimate, Mean (SE) [2]: 16 (2.2) Days
- Time (Days) to Initial Occurrence of Ulcerative OM, K-M Estimate, Median (95% CI) [2]: 15 (10, 20) Days
- Cum. Percent of Subjects with Ulcerative OM (WHO > 1) (0.02 mg/kg, Completer Population, at 5-<10 Gy): 6% (1%, 35%)
- Cum. Percent of Subjects with Ulcerative OM (WHO > 1) (0.02 mg/kg, Completer Population, at 10-<15 Gy): 18% (6%, 45%)
- Cum. Percent of Subjects with Ulcerative OM (WHO > 1) (0.02 mg/kg, Completer Population, at 15-<20 Gy): 41% (22%, 67%)
- Cum. Percent of Subjects with Ulcerative OM (WHO > 1) (0.02 mg/kg, Completer Population, at 20-<25 Gy): 59% (37%, 81%)
- Cum. Percent of Subjects with Ulcerative OM (WHO > 1) (0.02 mg/kg, Completer Population, at 25-<30 Gy): 76% (55%, 93%)
- Cum. Percent of Subjects with Severe OM (WHO > 2) [3]: 53% (32%, 77%)
- Cum. Percent of Subjects with Ulcerative OM (WHO > 1) [3]: 88% (69%, 98%)
- Cum. Percent of Subjects with Severe OM (WHO > 2) [4]: 53% (32%, 77%)
- Cum. Percent of Subjects with Ulcerative OM (WHO > 1) [4]: 94% (76%, 100%)
- Cum. Percent of Subjects with Severe OM (WHO > 2) [5]: 59% (37%, 81%)
- Cum. Percent of Subjects with Ulcerative OM (WHO > 1) [5]: 94% (76%, 100%)
- Cum. Percent of Subjects with Severe OM (WHO > 2) [6]: 59% (37%, 81%)
- Cum. Percent of Subjects with Ulcerative OM (WHO > 1) [6]: 94% (76%, 100%)
- Cum. Percent of Subjects with Severe OM (WHO > 2) [7]: 65% (43%, 86%)
- Cum. Percent of Subjects with Ulcerative OM (WHO > 1) [7]: 94% (76%, 100%)
- Cum. Percent of Subjects with Severe OM (WHO > 2) [8]: 71% (49%, 89%)
- Cum. Percent of Subjects with Ulcerative OM (WHO > 1) [8]: 94% (76%, 100%)
- Cum. Percent of Subjects with Ulcerative OM (WHO > 1) (0.02 mg/kg, Completer Population, at 60-<65 Gy): 100% (76%, 100%)
- Cum. Percent of Subjects with Severe OM (WHO > 2) (0.02 mg/kg, Completer Population, at 60->65 Gy): 78% (56%, 94%)
- Cum. Percent of Subjects with Severe OM (WHO > 2) [9]: 78% (56%, 94%)
- Cum. Percent of Subjects with Ulcerative OM (WHO > 1) [9]: 100% (76%, 100%)
- Cum. Percent of Subjects with Ulcerative OM (WHO > 1) (0.02 mg/kg, Completer Population, at <5 Gy): 0% (0%, 0%)
- Cum. Percent of Subjects with Severe OM (WHO > 2) (0.02 mg/kg, Completer Population, at <30 Gy): 35% (18%, 62%)
- Cum. Percent of Subjects with Severe OM (WHO > 2) [10]: 78% (56%, 94%)
- Cum. Percent of Subjects with Ulcerative OM (WHO > 1) [10]: 100% (76%, 100%)
- Cumulative Dose of RT (Gy) at Initial Onset of Severe OM, Max (0.02 mg/kg, FAS population): 70 Gy
- Cumulative Dose of RT (Gy) at Initial Onset of Severe OM, Mean (SD) (0.02 mg/kg, FAS population): 41 (18.0) Gy
- Cumulative Dose of RT (Gy) at Initial Onset of Severe OM, Median (0.02 mg/kg, FAS population): 33 Gy
- Cumulative Dose of RT (Gy) at Initial Onset of Severe OM, Min (0.02 mg/kg, FAS population): 18 Gy
- Cumulative Dose of Radiation (Gy) Prior to Initial Occurrence of Severe OM (Delay to Onset of Severe OM), K-M Estimate, Mean (SE) (0.02 mg/kg, FAS population): 41 (3.8) Gy
- Cumulative Dose of Radiation (Gy) Prior to Initial Occurrence of Severe OM, K-M Estimate, 25%-75% (0.02 mg/kg, FAS population): 28-62 Gy
- Cumulative Dose of Radiation (Gy) Prior to Initial Occurrence of Severe OM, K-M Estimate, Median (95% CI) (0.02 mg/kg, FAS population): 34 (29, 59) Gy
- Time (Days) to Initial Occurrence of Severe OM, K-M Estimate, 25%-7% (0.02 mg/kg, FAS population): 18 to 42 days
- Time (Days) to Initial Occurrence of Severe OM, K-M Estimate, Mean (SE) (0.02 mg/kg, FAS population): 28 (2.7) Days
- Time (Days) to Initial Occurrence of Severe OM, K-M Estimate, Median (95% CI) (0.02 mg/kg, FAS population): 24 (19, 41) Days
- Cum. Percent of Subjects with Severe OM (WHO > 2) (0.02 mg/kg, FAS population, at 30-<35 Gy): 52% (32%, 75%)
- Cum. Percent of Subjects with Severe OM (WHO > 2) (0.02 mg/kg, FAS population, at 35-<40 Gy): 58% (37%, 79%)
- Cum. Percent of Subjects with Severe OM (WHO > 2) (0.02 mg/kg, FAS population, at 40-<45 Gy): 63% (42%, 83%)
- Cum. Percent of Subjects with Severe OM (WHO > 2) (0.02 mg/kg, FAS population, at 45-<50 Gy): 63% (42%, 83%)
- Cum. Percent of Subjects with Severe OM (WHO > 2) (0.02 mg/kg, FAS population, at 50-<55 Gy): 68% (47%, 87%)
- Cum. Percent of Subjects with Severe OM (WHO > 2) (0.02 mg/kg, FAS population, at 55-<60 Gy): 73% (53%, 90%)
- Cum. Percent of Subjects with Severe OM (WHO > 2) (0.02 mg/kg, FAS population, at 60-<65 Gy): 80% (59%, 94%)
- Cum. Percent of Subjects with Severe OM (WHO > 2) (0.02 mg/kg, FAS population, at 65-<70 Gy): 80% (59%, 94%)
- Cum. Percent of Subjects with Severe OM (WHO > 2) (0.02 mg/kg, FAS population, at >30 Gy): 36% (19%, 61%)
- Cum. Percent of Subjects with Severe OM (WHO > 2) (0.02 mg/kg, FAS population, at ≧70 Gy): 80% (59%, 94%)
- Cox Regression Analysis of Time to Initial Occurrence of Sever OM, Hazard Ratio (95% CI) [11]: 1.002 (0.433, 2.319)
- Cox Regression Analysis of Time to Initial Occurrence of Ulcerative OM, Hazard Ratio (95% CI) [11]: 0.475 (0.225, 1.004)
- Cox Regression Analysis of Time to Initial Occurrence of Severe OM, Hazard Ratio (95% CI) (0.10 mg/kg vs placebo, FAS population): 1.100 (0.484, 2.500)
- Cumulative Dose of RT (Gy) at Initial Onset of Severe OM, Max [12]: 72 Gy
- Cumulative Dose of RT (Gy) at Initial Onset of Severe OM, Mean (SD) [12]: 55 (14.8) Gy
- Cumulative Dose of RT (Gy) at Initial Onset of Severe OM, Median [12]: 57 Gy
- Cumulative Dose of RT (Gy) at Initial Onset of Severe OM, Min [12]: 20 Gy
- Cumulative Dose of RT (Gy) at Initial Onset of Ulcerative OM, Max [12]: 68 Gy
- Cumulative Dose of RT (Gy) at Initial Onset of Ulcerative OM, Mean (SD) [12]: 31 (16.6) Gy
